# In PMC11207111, “Assessment of the Activity of Nitroisoxazole Derivatives against Trypanosoma cruzi” (Molecules, 2024):
# Test system: not listed separately
# Assay: Cyclic voltammetry (reduction of the nitro group)
# Type: physicochemical
# Design: key to −EpcI / −EpcII / −EpaII / −EpaI: potentials in V vs Ag/AgCl; |ΔEp|: unit not given here
# Conditions: cyclic voltammetry at 2.0 V/s
# Text: The chemistry mechanism of reduction in nitroisoxazole derivatives was investigated using cyclic voltammetry.
# The peak near −1.32 V corresponds to a quasi-reversible one-electron transfer, according to the criteria of Nicholson–Shain [26] (Table 1), attributable to the species −NO2/NO2.− . The latter species stable anion radical at room temperature. […] An irreversible peak at −0.93 V to the mono-electronic transfer −HNO2/HNO2.− is observed, coupled with a chemical reaction associated with […] of the formed radical. This was evidenced by the addition of NaOH (1 M), which caused a decrease in the Ic peak (Figure 2c).
# As previously described, an irreversible signal assigned to hydroxylamine oxidation to a nitroso derivative is also observed for N-acylhydrazones organometallic compounds with a pendant 5-nitrofuryl group. […] Compound 7, which has the least negative reduction potential, can be attributed to introducing a nitro group in the para position of the nitroisoxazole ring. This effect can also be observed in derivatives containing halogens in the same position.
# Electrochemical characterization of the new compounds was performed through cyclic voltammetry (CV) on a 693 VA Metrohm instrument (Tokyo, Japan) equipped with a 694 VA Stand converter and 693 VA processor. Potentials were recorded against the Ag/AgCl reference electrode; a hanging drop of mercury (HDME) was used as a working electrode, and platinum was used as an auxiliary electrode. Tetrabutylammonium perchlorate (TBAP, 0.1 M) in DMSO was used as a supporting electrolyte under an N2 atmosphere at room temperature. Using Nicholson´s procedure, the Ipa/Ipc values (RNO2/RNO2^−) were measured from each cyclic voltammogram with a scan rate between 0.1 and 2.5 V/s.
Structure (SMILES),Ipa/Ipc,|ΔEp|
"Cc1noc(/C=C/c2ccc([N+](=O)[O-])cc2)c1[N+](=O)[O-] [Compound 7, (E)-3-Methyl-4-nitro-5-(4-nitrostyryl)isoxazole]",−0.44,70
"Cc1noc(/C=C/c2ccccc2Br)c1[N+](=O)[O-] [Compound 15, (E)-5-(2-Bromostyryl)-3-methyl-4-nitroisoxazole]",−0.14,100

# Same assay, conditions: cyclic voltammetry at 2.0 V/s, DMSO, 0.1 M TBAP, vs Ag/AgCl
Structure (SMILES),−EpcII,−EpaII,−EpaI,−EpcI
"Cc1noc(/C=C/c2ccc(C(F)(F)F)cc2)c1[N+](=O)[O-] [Compound 6, (E)-3-Methyl-4-nitro-5-(4-(trifluoromethyl)styryl)isoxazole]",0.74,–,–,–
"Cc1noc(/C=C/c2ccc([N+](=O)[O-])cc2)c1[N+](=O)[O-] [Compound 7, (E)-3-Methyl-4-nitro-5-(4-nitrostyryl)isoxazole]",0.71,0.64,–,–
"Cc1noc(/C=C/c2ccccc2Br)c1[N+](=O)[O-] [Compound 15, (E)-5-(2-Bromostyryl)-3-methyl-4-nitroisoxazole]",1.10,0.95,0.70,0.80

# Test system: not listed separately
# Assay: ORAC-FL antioxidant capacity
# Conditions: relative to Trolox; phosphate buffer 75 mM, pH 7.4, 37 °C
# Description: To corroborate the generation of the nitro radical, the antioxidant capacity of the series under study was determined by ORAC-FL methodology, employing a fluorescent probe to capture oxygen-centered radicals (Table 2). The ORAC-FL values of the studied compounds are close to the reference value of Trolox, indicating a low antioxidant capacity. For compounds (1-3), the presence of amino substituents decreases antioxidant activity due to their […] characteristics, preventing the presence of labile hydrogens. […] Compounds 4 and 10 present similar ORAC indexes as aromatic rings with high electron density insert the transfer of labile protons. Antioxidant capacity was determined using the ORAC-fluorescence methodology (ORAC-FL). The analysis used a 96-well white polystyrene plate reader (EnSpire multimode PerkinElmer, Waltham, MA, USA). The reaction was carried out in phosphate buffer (75 mM, pH 7.4). […] A blank with FL and AAPH, using dimethyl sulfoxide instead of the antioxidant solution, was used in each assay. […] The inhibitor capacity was expressed as ORAC-FL values and quantified by integrating the area under the curve (AUCNET). All reaction mixtures were prepared in triplicate, and at least three independent assays were performed for each sample. The area under the fluorescence decay curve (AUC) was calculated by integrating the fluorescence decay where F0 is the initial fluorescence read at 0 min, and F is the fluorescence read at the time. The AUCNET corresponding to the sample was calculated by subtracting the AUC corresponding to the blank. Data were processed using Origin […].5 SR2 (San Francisco, CA, USA). The ORAC-FL indices were calculated according to the following Equation (1): (1) ORAC-[…]]
row,Structure (SMILES),ORAC-FL Index
1,"Cc1noc(/C=C/c2ccc(C(F)(F)F)cc2)c1[N+](=O)[O-] [Compound 6, (E)-3-Methyl-4-nitro-5-(4-(trifluoromethyl)styryl)isoxazole]",0.8 ± 0.1
2,"Cc1c(C)c2c(c(C)c1O)CCC(C)(C(=O)O)O2 (centres unmarked) [Trolox, reference compound]",1.00 ± 0.01
3,"Cc1noc(/C=C/c2ccc([N+](=O)[O-])cc2)c1[N+](=O)[O-] [Compound 7, (E)-3-Methyl-4-nitro-5-(4-nitrostyryl)isoxazole]",0.57 ± 0.08
4,"Cc1noc(/C=C/c2ccccc2Br)c1[N+](=O)[O-] [Compound 15, (E)-5-(2-Bromostyryl)-3-methyl-4-nitroisoxazole]",0.8 ± 0.3

# Test system: epimastigote of T. cruzi Dm28
# Assay: Trypanocidal activity (MTT) on epimastigotes
# Type: cell-based
# Conditions: Trypanosoma cruzi, 100 µM, 24 h, n.a = not active, read-out: % T. cruzi Epimastigote (trypanocidal effect)
# Description: As a preliminary step, a study of nitroisoxazole derivatives on the epimastigote form of T. cruzi was performed. Despite the epimastigote form not being a clinical form present in mammals, its easy handling has allowed screening for the trypanocidal activity of various compounds. It is worth noting that, during the intracellular life cycle of the parasite, a form similar to the epimastigote, which is biochemically and morphologically identical to the form present in the vector, has been described. […] RPMI 1640 medium) for 24 h. […] The effects of the compounds on trypomastigote and Vero cell viability were evaluated by tetrazolium salt reduction assay (MTT). […] The plates were kept overnight at 37 °C (28 °C for epimastigotes), and the optical density (OD) was determined using a 96-well microplate reader (Vantaa, Finland) at 570 nm. Under these conditions, the OD is directly proportional to each well’s viable number of cells. The experiments were performed in triplicate across three different assays.
row,Structure (SMILES),killing at 100 µM
1,"O=CCc1ccc(Br)cc1 [Compound P2, 4-bromophenyl acetaldehyde]",5 ± 2%
2,"Cc1noc(C)c1[N+](=O)[O-] [Compound P1, 3,5-dimethyl-4-nitroisoxazole]",14 ± 3%
3,"Cc1noc(/C=C/c2ccc(C(F)(F)F)cc2)c1[N+](=O)[O-] [Compound 6, (E)-3-Methyl-4-nitro-5-(4-(trifluoromethyl)styryl)isoxazole]",28 ± 2%
4,"Cc1noc(/C=C/c2ccc([N+](=O)[O-])cc2)c1[N+](=O)[O-] [Compound 7, (E)-3-Methyl-4-nitro-5-(4-nitrostyryl)isoxazole]",36 ± 2%
5,"Cc1noc(/C=C/c2ccccc2Br)c1[N+](=O)[O-] [Compound 15, (E)-5-(2-Bromostyryl)-3-methyl-4-nitroisoxazole]",29 ± 2%

# Test system: not given
# Assay: not given
# Conditions: not given
row,Structure (SMILES),melting point
1,"Cc1noc(/C=C/c2ccc(C(F)(F)F)cc2)c1[N+](=O)[O-] [Compound 6, (E)-3-Methyl-4-nitro-5-(4-(trifluoromethyl)styryl)isoxazole]",187 to 189 °C
2,"Cc1noc(/C=C/c2ccc([N+](=O)[O-])cc2)c1[N+](=O)[O-] [Compound 7, (E)-3-Methyl-4-nitro-5-(4-nitrostyryl)isoxazole]",225 to 227 °C
3,"Cc1noc(/C=C/c2ccccc2Br)c1[N+](=O)[O-] [Compound 15, (E)-5-(2-Bromostyryl)-3-methyl-4-nitroisoxazole]",169 to 172 °C
